# In ChEMBL document CHEMBL5214927, “Recent advance on carbamate-based cholinesterase inhibitors as potential multifunctional agents against Alzheimer's disease” (Eur J Med Chem, 2022):
# pIC50, pKi: −log10 of the molar value.
# Key:
# [1] = target: T1, Amine oxidase [flavin-containing] B (Homo sapiens, UniProt P27338); assay: Inhibition of MAO-B (unknown origin)
# T1 sequence (P27338 whole entry): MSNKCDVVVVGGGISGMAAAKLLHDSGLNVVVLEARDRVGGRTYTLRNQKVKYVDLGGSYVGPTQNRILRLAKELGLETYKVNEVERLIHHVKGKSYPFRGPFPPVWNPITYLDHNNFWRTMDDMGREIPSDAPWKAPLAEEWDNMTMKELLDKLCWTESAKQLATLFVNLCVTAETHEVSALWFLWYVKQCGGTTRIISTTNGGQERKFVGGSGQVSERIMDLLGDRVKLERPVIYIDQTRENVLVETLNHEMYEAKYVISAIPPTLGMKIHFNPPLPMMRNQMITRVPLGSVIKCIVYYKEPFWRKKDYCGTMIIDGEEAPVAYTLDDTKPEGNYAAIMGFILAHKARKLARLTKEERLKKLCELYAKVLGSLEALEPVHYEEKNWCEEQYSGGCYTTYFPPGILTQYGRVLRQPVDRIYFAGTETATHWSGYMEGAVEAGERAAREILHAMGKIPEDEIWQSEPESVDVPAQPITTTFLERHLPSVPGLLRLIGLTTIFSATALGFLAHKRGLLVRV
# [2] = target: T2, Amine oxidase [flavin-containing] A (Homo sapiens, UniProt P21397); assay: Inhibition of MAO-A (unknown origin)
# T2 sequence (P21397 whole entry): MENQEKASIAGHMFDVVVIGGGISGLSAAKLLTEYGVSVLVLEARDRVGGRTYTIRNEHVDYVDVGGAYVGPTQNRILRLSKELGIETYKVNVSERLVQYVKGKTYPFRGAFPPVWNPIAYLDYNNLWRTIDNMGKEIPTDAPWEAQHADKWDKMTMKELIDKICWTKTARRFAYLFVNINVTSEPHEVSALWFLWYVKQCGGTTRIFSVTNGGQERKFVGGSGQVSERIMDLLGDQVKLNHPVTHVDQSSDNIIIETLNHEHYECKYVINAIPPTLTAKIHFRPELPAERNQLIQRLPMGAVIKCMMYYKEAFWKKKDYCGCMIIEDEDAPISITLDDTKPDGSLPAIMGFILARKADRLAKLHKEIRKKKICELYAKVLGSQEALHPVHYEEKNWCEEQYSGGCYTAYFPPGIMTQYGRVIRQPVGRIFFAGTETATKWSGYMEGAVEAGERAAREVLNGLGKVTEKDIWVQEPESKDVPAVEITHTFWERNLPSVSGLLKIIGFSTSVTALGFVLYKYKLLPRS
# Acetylcholinesterase [3] = target: T3, Acetylcholinesterase (Homo sapiens, UniProt P22303); assay: Inhibition of recombinant human AChE
# Cholinesterase [4] = target: T4, Cholinesterase (Homo sapiens, UniProt P06276); assay: Inhibition of human BChE
# Cholinesterase [5] = target: T4, Cholinesterase; assay: Inhibition of BChE (unknown origin)
# Acetylcholinesterase [6] = target: T3, Acetylcholinesterase
# Description: Inhibition of human erythrocyte AChE using acetylthiocholine iodide as substrate preincubated for 30 mins followed by substrate addition measured after 5 mins by Ellman's method
# Cholinesterase [7] = target: T4, Cholinesterase; assay: Inhibition of human serum BChE using butyrylthiocholine as substrate by Ellman's method
# [8] = target: T5, Cholinesterases; ACHE & BCHE (Homo sapiens) (UniProt P06276+P22303); assay: Selectivity index, ratio of IC50 for AChE (unknown origin) to BChE (unknown origin); assay type: protein assay
# Acetylcholinesterase [9] = target: T3, Acetylcholinesterase; assay: Inhibition of AChE (unknown origin)
# Acetylcholinesterase [10] = target: T3, Acetylcholinesterase; assay: Inhibition of recombinant human serum AChE using acetylthiocholine iodide as substrate preincubated for 20 mins followed by substrate addition by Ellman's method
# [11] = target: T5, Cholinesterases; ACHE & BCHE (Homo sapiens); assay: Selectivity index, ratio of IC50 for recombinant human serum BChE to IC50 for recombinant human serum AChE; assay type: protein assay
# Cholinesterase [12] = target: T4, Cholinesterase; assay: Inhibition of recombinant human serum BChE using acetylthiocholine iodide as substrate preincubated for 20 mins followed by substrate addition by Ellman's method
# [13] = target: T5, Cholinesterases; ACHE & BCHE (Homo sapiens); assay: Selectivity index, ratio of IC50 for human AChE to IC50 for human BChE; assay type: protein assay
# Acetylcholinesterase [14] = target: T3, Acetylcholinesterase; assay: Inhibition of human AChE
# Cholinesterase [15] = target: T6, Cholinesterase (Equus caballus, UniProt P81908); assay: Inhibition of equine BChE
# Acetylcholinesterase [16] = target: T7, Acetylcholinesterase (Electrophorus electricus, UniProt O42275); assay: Inhibition of electric eel AChE
# Acetylcholinesterase [17] = target: T7, Acetylcholinesterase; assay: Binding affinity to electric eel AChE assessed as inhibition constant using acetylthiocholine iodide as substrate incubated for 30 mins by Ellman's method
# Acetylcholinesterase [18] = target: T7, Acetylcholinesterase; assay: Inhibition of electric eel AChE using acetylthiocholine iodide as substrate incubated for 30 mins by Ellman's method
# Cholinesterase [19] = target: T6, Cholinesterase; assay: Inhibition of equine BChE using acetylthiocholine iodide as substrate preincubated for 10 mins followed by substrate addition by Ellman's method
# Acetylcholinesterase [20] = target: T8, Acetylcholinesterase (Rattus norvegicus, UniProt P37136); assay: Inhibition of Sprague-Dawley rat cortex AChE using acetylthiocholine iodide as substrate incubated for 15 mins in presence of iso-OMPA inhibitor by Ellman's method
# T8 sequence (P37136 whole entry): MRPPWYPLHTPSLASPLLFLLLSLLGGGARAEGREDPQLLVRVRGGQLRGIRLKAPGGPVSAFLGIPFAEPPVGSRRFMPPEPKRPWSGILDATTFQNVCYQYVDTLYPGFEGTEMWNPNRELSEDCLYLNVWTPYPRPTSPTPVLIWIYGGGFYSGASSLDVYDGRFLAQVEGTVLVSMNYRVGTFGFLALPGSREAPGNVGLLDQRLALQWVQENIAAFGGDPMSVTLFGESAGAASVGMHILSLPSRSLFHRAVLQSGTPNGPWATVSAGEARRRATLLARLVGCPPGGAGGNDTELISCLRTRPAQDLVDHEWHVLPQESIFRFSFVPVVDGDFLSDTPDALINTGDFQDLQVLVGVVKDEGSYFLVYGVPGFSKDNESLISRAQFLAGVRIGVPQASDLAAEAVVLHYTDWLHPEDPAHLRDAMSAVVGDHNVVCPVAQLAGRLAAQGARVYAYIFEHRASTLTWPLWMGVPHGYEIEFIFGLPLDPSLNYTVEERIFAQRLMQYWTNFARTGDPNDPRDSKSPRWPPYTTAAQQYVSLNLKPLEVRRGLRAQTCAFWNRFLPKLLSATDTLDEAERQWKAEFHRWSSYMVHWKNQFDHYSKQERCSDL
# [21] = Selectivity index, ratio of IC50 for electric eel AChE to IC50 for equine BChE
# Acetylcholinesterase [22] = target: T3, Acetylcholinesterase; assay: Inhibition of recombinant human serum AChE using acetylthiocholine iodide as substrate preincubated for 20 mins followed by substrate addition measured after 5 mins by Ellman's method
# Cholinesterase [23] = target: T4, Cholinesterase; assay: Inhibition of recombinant human serum BChE using butyrylthiocholine iodide as substrate preincubated for 20 mins followed by substrate addition measured after 5 mins by Ellman's method
# T3 sequence (P22303 whole entry): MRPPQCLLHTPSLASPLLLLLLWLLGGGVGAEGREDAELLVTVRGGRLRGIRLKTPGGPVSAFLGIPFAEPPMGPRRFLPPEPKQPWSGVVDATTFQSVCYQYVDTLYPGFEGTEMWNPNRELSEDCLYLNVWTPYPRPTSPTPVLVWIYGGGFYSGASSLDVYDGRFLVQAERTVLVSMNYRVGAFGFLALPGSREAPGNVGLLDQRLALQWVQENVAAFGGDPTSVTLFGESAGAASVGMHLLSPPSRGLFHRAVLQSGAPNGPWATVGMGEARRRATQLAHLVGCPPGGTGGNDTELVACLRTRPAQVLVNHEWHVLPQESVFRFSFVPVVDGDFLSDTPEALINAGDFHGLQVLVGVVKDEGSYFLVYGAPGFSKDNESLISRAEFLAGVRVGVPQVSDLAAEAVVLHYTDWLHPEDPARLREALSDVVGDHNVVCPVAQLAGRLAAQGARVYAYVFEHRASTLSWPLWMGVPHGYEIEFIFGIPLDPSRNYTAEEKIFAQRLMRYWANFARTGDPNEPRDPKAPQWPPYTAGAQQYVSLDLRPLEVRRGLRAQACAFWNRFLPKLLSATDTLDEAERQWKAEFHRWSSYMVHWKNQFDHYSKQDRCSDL
# T6 sequence (P81908 whole entry): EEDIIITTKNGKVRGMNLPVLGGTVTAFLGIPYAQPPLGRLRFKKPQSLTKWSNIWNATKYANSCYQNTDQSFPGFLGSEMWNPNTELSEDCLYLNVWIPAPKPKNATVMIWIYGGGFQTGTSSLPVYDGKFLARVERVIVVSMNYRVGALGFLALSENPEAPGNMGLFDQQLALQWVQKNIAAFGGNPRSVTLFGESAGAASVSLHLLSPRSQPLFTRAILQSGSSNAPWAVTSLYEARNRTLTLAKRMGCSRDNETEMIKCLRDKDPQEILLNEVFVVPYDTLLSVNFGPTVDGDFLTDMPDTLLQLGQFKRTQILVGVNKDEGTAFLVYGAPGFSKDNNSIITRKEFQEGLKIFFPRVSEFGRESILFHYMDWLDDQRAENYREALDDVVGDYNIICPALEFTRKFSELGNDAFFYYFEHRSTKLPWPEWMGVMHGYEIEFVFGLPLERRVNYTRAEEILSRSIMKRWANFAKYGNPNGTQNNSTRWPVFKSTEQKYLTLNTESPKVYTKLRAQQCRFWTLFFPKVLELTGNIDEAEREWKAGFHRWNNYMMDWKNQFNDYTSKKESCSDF
# T7 sequence (O42275 whole entry): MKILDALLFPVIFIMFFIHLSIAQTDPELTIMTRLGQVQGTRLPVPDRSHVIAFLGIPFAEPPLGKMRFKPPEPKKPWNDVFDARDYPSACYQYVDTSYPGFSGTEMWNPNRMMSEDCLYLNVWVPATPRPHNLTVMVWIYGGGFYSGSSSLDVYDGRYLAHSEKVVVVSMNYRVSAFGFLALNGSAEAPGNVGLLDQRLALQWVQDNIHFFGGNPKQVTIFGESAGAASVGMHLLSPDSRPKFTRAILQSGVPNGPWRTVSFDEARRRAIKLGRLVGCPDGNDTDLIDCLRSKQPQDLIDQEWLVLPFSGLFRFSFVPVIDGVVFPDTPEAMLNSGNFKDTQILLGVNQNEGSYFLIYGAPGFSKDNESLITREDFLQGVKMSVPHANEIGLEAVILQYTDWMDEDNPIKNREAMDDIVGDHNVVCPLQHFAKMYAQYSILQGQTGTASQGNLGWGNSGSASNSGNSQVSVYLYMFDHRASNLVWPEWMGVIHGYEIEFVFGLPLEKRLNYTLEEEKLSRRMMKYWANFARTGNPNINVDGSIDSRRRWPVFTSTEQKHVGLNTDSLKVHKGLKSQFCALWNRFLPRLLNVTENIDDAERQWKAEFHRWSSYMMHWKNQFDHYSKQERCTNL
# T4 sequence (P06276 whole entry): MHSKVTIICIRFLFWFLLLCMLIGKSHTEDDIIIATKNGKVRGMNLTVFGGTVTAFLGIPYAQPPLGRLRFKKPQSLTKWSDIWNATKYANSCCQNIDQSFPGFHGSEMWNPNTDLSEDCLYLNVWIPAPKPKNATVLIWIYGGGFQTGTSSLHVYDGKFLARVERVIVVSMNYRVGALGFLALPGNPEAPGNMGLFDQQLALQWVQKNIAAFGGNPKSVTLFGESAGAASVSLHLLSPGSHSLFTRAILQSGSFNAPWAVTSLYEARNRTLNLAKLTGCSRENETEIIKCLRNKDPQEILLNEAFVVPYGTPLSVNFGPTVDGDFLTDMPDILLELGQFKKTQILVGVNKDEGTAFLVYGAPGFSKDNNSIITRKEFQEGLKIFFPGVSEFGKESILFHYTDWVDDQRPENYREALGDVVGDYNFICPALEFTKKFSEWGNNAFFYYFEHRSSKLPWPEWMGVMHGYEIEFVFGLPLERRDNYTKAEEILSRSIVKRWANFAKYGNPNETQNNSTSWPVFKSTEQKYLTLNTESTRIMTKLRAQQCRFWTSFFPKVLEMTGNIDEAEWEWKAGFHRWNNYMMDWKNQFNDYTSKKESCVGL
# T5 sequence (P06276 whole entry, looked up): as the sequence (P06276 whole entry) above
# T5 sequence (P22303 whole entry, looked up): as the sequence (P22303 whole entry) above
smiles,measurement,setting,value
C#CCN(C)C1CCc2c(OC(=O)N(C)CC)cccc21 (centres undefined),pIC50,[1],7.57
same,pIC50,[2],6.10
same,pIC50,Acetylcholinesterase [3],5.40
same,pIC50,Cholinesterase [4],4.83
Cc1ccccc1NC(=O)Oc1ccc2c(c1)[C@]1(C)CCO[C@@H]1O2,pIC50,Cholinesterase [5],< 4.52
C#CCNC1CCc2c(OC(=O)N(C)C)cccc21 (centres undefined),pIC50,[1],6.59
same,pIC50,[2],7.28
same,pIC50,Acetylcholinesterase [3],4.07
CN(CCCOc1ccc2c(=O)c3ccccc3oc2c1)Cc1cccc(OC(=O)NCCCCCCCCCN2CCOCC2)c1,pIC50,Acetylcholinesterase [6],8.05
same,pIC50,Cholinesterase [7],7.53
CC(C)c1ccc(NC(=O)Oc2ccc3c(c2)[C@]2(C)CCN(CCc4ccccc4)[C@@H]2N3C)cc1,Ratio IC50,[8],> 5000
same,pIC50,Acetylcholinesterase [9],< 4.52
CNC(=O)Oc1cccc(CN(C)CCCCCCCOc2ccc(-c3cc(=O)c4ccccc4o3)cc2)c1,pIC50,Acetylcholinesterase [10],9.14
same,Ratio IC50,[11],96
same,pIC50,Cholinesterase [12],7.15
CN1CC[C@@]2(C)c3cc(OC(=O)Nc4ccccc4)ccc3N(C)[C@@H]12,Ratio IC50,[8],65
O=C(Oc1cc(O)c2c(=O)cc(-c3ccc(O)cc3)oc2c1)N1CCCCC1,Ratio IC50,[13],665
same,pIC50,Acetylcholinesterase [14],4.20
same,pIC50,Cholinesterase [4],7.03
CCCCCCCNC(=O)OCCN1CCN(CCCCCOc2ccc3ccc(=O)[nH]c3c2)CC1,pIC50,Cholinesterase [15],5.74
same,pIC50,Acetylcholinesterase [16],6.41
CC(C)c1ccc(NC(=O)Oc2ccc3c(c2)[C@]2(C)CCO[C@@H]2O3)cc1,pIC50,Cholinesterase [5],7.57
O=c1ccc2ccc(OCCCCSC(=S)N3CCCCC3)cc2[nH]1,pIC50,Cholinesterase [15],6.80
COC(=O)CCC/C=C\C/C=C\C/C=C\CCOC(=O)Nc1ccc(Cl)cc1,pKi,Acetylcholinesterase [17],5.58
same,pIC50,Acetylcholinesterase [18],4.69
COC(=O)c1cc2c(OC(=O)N(C)C)cccc2[n+]([11CH3])c1,pIC50,Acetylcholinesterase [14],7.70
CCCCCCNC(=O)OCn1nc(-c2ccccc2OC)ccc1=O,pIC50,Cholinesterase [19],4.46
O=C1CCOc2cc(OCCCCCSC(=S)N3CCCCC3)ccc21,pIC50,Acetylcholinesterase [3],7.00
CC(C)c1ccc(NC(=O)Oc2ccc3c(c2)[C@]2(C)CCN[C@@H]2N3)cc1,Ratio IC50,[8],110
CN1CCN(C(=O)Oc2ccc(/C=C/c3cc(OC(=O)N4CCN(C)CC4)cc(OC(=O)N4CCN(C)CC4)c3)cc2)CC1,pIC50,Acetylcholinesterase [20],5.16
CCN(C)C(=O)Oc1cc(OC(=O)N(C)CC)cc(C(O)CNC(C)(C)CC)c1 (centres undefined),Ratio IC50,[21],> 862
CC(C)C[C@@H](CS(=O)(=O)NCc1ccc(Cl)cc1)NC(=O)OCc1ccccc1,Ratio IC50,[21],10.3
CN1c2ccc(OC(=O)NCC3CCCCC3)cc2[C@]2(C)CCN(CCc3ccccc3)[C@H]12,Ratio IC50,[8],1390
same,pIC50,Acetylcholinesterase [9],5.60
CNC(=O)Oc1cccc(CN(C)CCCCCCOc2ccc(C(=O)/C=C/c3cc(OC)c(OC)c(OC)c3)c(O)c2)c1,pIC50,Acetylcholinesterase [22],8.88
same,Ratio IC50,[11],23
same,pIC50,Cholinesterase [23],7.52
C#CCN(C)C1CCc2cccc(OC(=O)N(C)C)c21 (centres undefined),pIC50,[1],6.48
same,pIC50,[2],5.15
same,pIC50,Acetylcholinesterase [3],3.14
CCCCCCCNC(=O)Oc1ccc2[nH]cc(CCNC(=O)c3ccccc3Nc3ccccc3)c2c1,Ratio IC50,[21],> 10000
same,pIC50,Cholinesterase [15],8.15
same,pIC50,Acetylcholinesterase [16],< 4.00
COc1cc(/C=C/C(=O)NCCCCNC(=O)Oc2ccc3c(c2)CN2CCc4ccccc4C2N3C)ccc1O (centres undefined),pIC50,Cholinesterase [5],6.99
